Counter-ions that a name gives are not always drawn.
How the values were obtained:
Settings in all cases: averaged IC50
[1] = biological target: His-tagged recombinant human AXL cytoplasmic domain (Homo sapiens (Human), UniProt P30530); assay: AXL Enzyme Assay (LanthaScreen Eu Kinase Binding, TR-FRET)
In short: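 Compound displacement measured by TR-FRET after 60 min at 22 °C, using Eu-based LanthaScreen binding technology. Ratiometric emission converted to percent of control, fitted to a 4-parameter logistic curve, with IC50 at 50 POC.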

[2] = biological target: GST-tagged recombinant human TYRO3 kinase domain (Homo sapiens (Human), UniProt Q06418); assay: TYRO3 Enzyme Assay (LanthaScreen Eu Kinase Binding, TR-FRET)
GST-tagged recombinant human TYRO3 kinase domain, sequence (Q06418 518-790): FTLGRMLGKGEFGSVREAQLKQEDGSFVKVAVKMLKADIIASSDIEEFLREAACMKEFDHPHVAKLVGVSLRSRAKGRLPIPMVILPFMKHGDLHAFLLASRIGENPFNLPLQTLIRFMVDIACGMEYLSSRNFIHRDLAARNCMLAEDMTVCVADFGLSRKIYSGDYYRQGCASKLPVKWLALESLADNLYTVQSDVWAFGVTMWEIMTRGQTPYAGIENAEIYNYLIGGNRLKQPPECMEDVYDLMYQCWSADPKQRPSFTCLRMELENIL
In short: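 LanthaScreen Eu binding (tracer displacement) format read by TR-FRET after 60 min at 22 °C. Emission ratio converted to percent of control; IC50 taken where a 4-parameter logistic fit crosses 50 POC.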

[3] = biological target: His-tagged recombinant human MER cytoplasmic domain (Homo sapiens (Human), UniProt Q12866); assay: MER Enzyme Assay (LanthaScreen Eu Kinase Binding, TR-FRET)
His-tagged recombinant human MER cytoplasmic domain, sequence (Q12866 527-999): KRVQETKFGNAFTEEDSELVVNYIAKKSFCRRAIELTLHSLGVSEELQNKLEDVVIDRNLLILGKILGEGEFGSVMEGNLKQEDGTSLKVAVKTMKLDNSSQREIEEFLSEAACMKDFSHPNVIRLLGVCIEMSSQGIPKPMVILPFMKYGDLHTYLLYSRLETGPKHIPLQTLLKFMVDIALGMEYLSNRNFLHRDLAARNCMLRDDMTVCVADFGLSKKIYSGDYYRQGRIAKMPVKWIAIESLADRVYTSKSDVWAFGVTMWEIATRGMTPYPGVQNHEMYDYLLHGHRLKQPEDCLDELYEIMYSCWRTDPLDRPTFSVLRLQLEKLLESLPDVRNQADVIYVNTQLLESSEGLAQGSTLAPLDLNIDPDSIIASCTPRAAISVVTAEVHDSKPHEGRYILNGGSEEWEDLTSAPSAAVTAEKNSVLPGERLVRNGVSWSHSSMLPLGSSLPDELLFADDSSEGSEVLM
In short: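 Percent of control, derived from ratiometric TR-FRET emission, was fitted to a 4-parameter logistic curve and IC50 taken at 50 POC. Binding was read after 60 min at 22 °C using Eu-based LanthaScreen technology and recombinant His-tagged MER cytoplasmic domain.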

His-tagged recombinant human AXL cytoplasmic domain, sequence (P30530 473-894): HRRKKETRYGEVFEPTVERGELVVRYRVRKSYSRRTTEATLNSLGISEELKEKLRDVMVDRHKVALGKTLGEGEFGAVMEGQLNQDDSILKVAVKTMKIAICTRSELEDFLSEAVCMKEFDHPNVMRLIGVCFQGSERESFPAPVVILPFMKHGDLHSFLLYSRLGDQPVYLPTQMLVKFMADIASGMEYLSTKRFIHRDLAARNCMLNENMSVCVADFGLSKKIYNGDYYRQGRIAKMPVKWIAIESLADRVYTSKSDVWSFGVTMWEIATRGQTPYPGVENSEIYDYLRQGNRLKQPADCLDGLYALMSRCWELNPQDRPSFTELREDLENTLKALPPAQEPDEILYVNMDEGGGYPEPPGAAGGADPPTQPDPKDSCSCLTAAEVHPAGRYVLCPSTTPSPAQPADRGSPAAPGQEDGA

Structure (SMILES) | IC50 [1] | IC50 [2] | IC50 [3]
CNc1cc2c(cn1)c(-c1ccn(C)c(=O)c1)nn2[C@H]1CC[C@@H](Oc2cccnc2C(F)(F)F)CC1 [Example 216, 1-methyl-4-(6-(methylamino)-1-((1s,4s)-4-((2-(trifluoromethyl)pyridin-3-yl)oxy)cyclohexyl)-1H-pyrazolo[4,3-c]pyridin-3-yl)pyridin-2(1H)-one] | < 0.01 µM | < 0.01 µM | < 0.01 µM
CNc1cc2c(cn1)c(-c1cnn(C[C@@H](N)CO)c1)nn2[C@H]1CC[C@@H](Oc2ccccc2F)CC1 [Example 432, (R)-2-amino-3-(4-(1-((1s,4S)-4-(2-fluorophenoxy)cyclohexyl)-6-(methylamino)-1H-pyrazolo[4,3-c]pyridin-3-yl)-1H-pyrazol-1-yl)propan-1-ol] | < 0.01 µM | < 0.01 µM | < 0.01 µM
CNc1cc2c(cn1)c(-c1ccc(S(C)(=O)=O)cc1)nn2[C@H]1CC[C@@H](Oc2cn(C)nc2C(F)(F)F)CC1 [Example 284, N-methyl-1-((1s,4s)-4-((1-methyl-3-(trifluoromethyl)-1H-pyrazol-4-yl)oxy)cyclohexyl)-3-(4-(methylsulfonyl)phenyl)-1H-pyrazolo[4,3-c]pyridin-6-amine] | < 0.01 µM | < 0.01 µM | < 0.01 µM
CNc1cc2c(cn1)c(-c1cnn(C(C)(C)C#N)c1)nn2[C@H]1CC[C@@H](Oc2cn(C)nc2C(F)(F)F)CC1 [Example 163, 2-methyl-2-(4-(1-((1s,4s)-4-((1-methyl-3-(trifluoromethyl)-1H-pyrazol-4-yl)oxy)cyclohexyl)-6-(methylamino)-lH-pyrazolo[4,3-c]pyridin-3-yl)-1H-pyrazol-1-yl)propanenitrile] | < 0.01 µM | < 0.01 µM | < 0.01 µM
CCNc1cc2c(cn1)c(-c1cnn(C)c1)nn2[C@H]1CC[C@@H](Oc2cccc(C#N)c2)CC1 [Example 378, 3-(((1s,4s)-4-(6-(ethylamino)-3-(1-methyl-1H-pyrazol-4-yl)-1H-pyrazolo[4,3-c]pyridin-1-yl)cyclohexyl)oxy)benzonitrile] | < 0.01 µM | 0.01 to 0.1 µM | < 0.01 µM
CCNc1cc2c(cn1)c(-c1cnn(C[C@@H](O)CO)c1)nn2[C@H]1CC[C@@H](Oc2cn(C)nc2C(F)(F)F)CC1 [Example 283, ®-3-(4-(6-(ethylamino)-1-((1s,4S)-4-((1-methyl-3-(trifluoromethyl)-1H-pyrazol-4-yl)oxy)cyclohexyl)-1H-pyrazolo[4,3-c]pyridin-3-yl)-1H-pyrazol-1-yl)propane-1,2-diol] | < 0.01 µM | < 0.01 µM | < 0.01 µM
CNc1cc2c(cn1)c(-c1ccc(=O)n(C)c1)nn2[C@H]1CC[C@@H](Oc2cccnc2C(F)(F)F)CC1 [Example 217, 1-methyl-5-(6-(methylamino)-1-((1s,4s)-4-((2-(trifluoromethyl)pyridin-3-yl)oxy)cyclohexyl)-1H-pyrazolo[4,3-c]pyridin-3-yl)pyridin-2(1H)-one] | < 0.01 µM | < 0.01 µM | < 0.01 µM

Results, then the molecule that gave them:

IC50 [1] | IC50 [2] | IC50 [3] | Structure (SMILES)
< 0.01 µM | < 0.01 µM | < 0.01 µM | CCNc1cc2c(cn1)c(-c1ccc(CN3CCN(C)CC3)cc1)nn2[C@H]1CC[C@@H](Oc2cn(C)nc2C(F)(F)F)CC1 [Example 289, N-ethyl-1-((1s,4s)-4-((1-methyl-3-(trifluoromethyl)-1H-pyrazol-4-yl)oxy)cyclohexyl)-3-(4-((4-methylpiperazin-1-yl)methyl)phenyl)-1H-pyrazolo[4,3-c]pyridin-6-amine]
< 0.01 µM | 0.01 to 0.1 µM | < 0.01 µM | CCNc1cc2c(cn1)c(C1=CCN(C)CC1)nn2[C@H]1CC[C@@H](Oc2nccc(C(F)(F)F)c2F)CC1 [Example 255]
< 0.01 µM | 0.01 to 0.1 µM | < 0.01 µM | CCNc1cc2c(cn1)c(N1CC[C@H](N)C1)nn2[C@H]1CC[C@@H](Oc2nccc(C(F)(F)F)c2F)CC1 [Example 493, 3-((S)-3-aminopyrrolidin-1-yl)-N-ethyl-1-((1s,4R)-4-((3-fluoro-4-(trifluoromethyl)pyridin-2-yl)oxy)cyclohexyl)-1H-pyrazolo[4,3-c]pyridin-6-amine]
< 0.01 µM | 0.01 to 0.1 µM | < 0.01 µM | CCNc1cc2c(cn1)c(-c1cnn(C[C@H](O)C(C)(C)O)c1)nn2[C@H]1CC[C@@H](Oc2nccc(C(F)(F)F)c2F)CC1 [Example 236, (S)-1-(4-(6-(ethylamino)-1-((1s,4R)-4-((3-fluoro-4-(trifluoromethyl)pyridin-2-yl)oxy)cyclohexyl)-1H-pyrazolo[4,3-c]pyridin-3-yl)-1H-pyrazol-1-yl)-3-methylbutane-2,3-diol]
< 0.01 µM | 0.01 to 0.1 µM | < 0.01 µM | CCNc1cc2c(cn1)c(N1CC[C@@H](N)C1)nn2[C@H]1CC[C@@H](Oc2nccc(C(F)(F)F)c2F)CC1 [Example 494, 3-((R)-3-aminopyrrolidin-1-yl)-N-ethyl-1-((1s,4S)-4-((3-fluoro-4-(trifluoromethyl)pyridin-2-yl)oxy)cyclohexyl)-1H-pyrazolo[4,3-c]pyridin-6-amine]
< 0.01 µM | 0.01 to 0.1 µM | < 0.01 µM | CCNc1cc2c(cn1)c(N1CC[C@H](O)C1)nn2[C@H]1CC[C@@H](Oc2nccc(C(F)(F)F)c2F)CC1 [Example 336, (S)-1-(6-(ethylamino)-1-((1s,4R)-4-((3-fluoro-4-(trifluoromethyl)pyridin-2-yl)oxy)cyclohexyl)-1H-pyrazolo[4,3-c]pyridin-3-yl)pyrrolidin-3-ol]
< 0.01 µM | 0.01 to 0.1 µM | < 0.01 µM | CCNc1cc2c(cn1)c(-c1cnn(CC(C)(C)CO)c1)nn2[C@H]1CC[C@@H](Oc2nccc(C(F)(F)F)c2F)CC1 [Example 271, 3-(4-(6-(ethylamino)-1-((1s,4s)-4-((3-fluoro-4-(trifluoromethyl)pyridin-2-yl)oxy)cyclohexyl)-1H-pyrazolo[4,3-c]pyridin-3-yl)-1H-pyrazol-1-yl)-2,2-dimethylpropan-1-ol hydrochloride]
< 0.01 µM | < 0.01 µM | < 0.01 µM | CCNc1cc2c(cn1)c(-c1cnn(CC(N)=O)c1)nn2[C@H]1CC[C@@H](Oc2nccc(C(F)(F)F)c2F)CC1 [Example 248, 2-(4-(6-(ethylamino)-1-((1s,4s)-4-((3-fluoro-4-(trifluoromethyl)pyridin-2-yl)oxy)cyclohexyl)-1H-pyrazolo[4,3-c]pyridin-3-yl)-1H-pyrazol-1-yl)acetamide]
< 0.01 µM | < 0.01 µM | < 0.01 µM | CCNc1cc2c(cn1)c(-c1cnn(C(C)(C)C#N)c1)nn2[C@H]1CC[C@@H](Oc2cn[nH]c2C(F)(F)F)CC1 [Example 312, 2-(4-(6-(ethylamino)-1-((1s,4s)-4-((5-(trifluoromethyl)-1H-pyrazol-4-yl)oxy)cyclohexyl)-1H-pyrazolo[4,3-c]pyridin-3-yl)-1H-pyrazol-1-yl)-2-methylpropanenitrile]
< 0.01 µM | 0.01 to 0.1 µM | < 0.01 µM | CCNc1cc2c(cn1)c(N1CCOCC1)nn2[C@H]1CC[C@@H](Oc2nccc(C(F)(F)F)c2F)CC1 [Example 330, N-ethyl-1-((1s,4s)-4-((3-fluoro-4-(trifluoromethyl)pyridin-2-yl)oxy)cyclohexyl)-3-morpholino-1H-pyrazolo[4,3-c]pyridin-6-amine]

Reference: patent US11247990B1, “Bicyclic fused pyridine compounds as inhibitors of TAM kinases” (ARRAY BIOPHARMA INC., priority 2017, dated 2022)
